# Assay results from patent US20240308960A1 (Sumitomo Pharma Co., Ltd., priority 2021, published 2024).
# Target: T1, Human orexin receptor type 2 (Homo sapiens, UniProt O43614)
# T1 sequence (O43614 1-444): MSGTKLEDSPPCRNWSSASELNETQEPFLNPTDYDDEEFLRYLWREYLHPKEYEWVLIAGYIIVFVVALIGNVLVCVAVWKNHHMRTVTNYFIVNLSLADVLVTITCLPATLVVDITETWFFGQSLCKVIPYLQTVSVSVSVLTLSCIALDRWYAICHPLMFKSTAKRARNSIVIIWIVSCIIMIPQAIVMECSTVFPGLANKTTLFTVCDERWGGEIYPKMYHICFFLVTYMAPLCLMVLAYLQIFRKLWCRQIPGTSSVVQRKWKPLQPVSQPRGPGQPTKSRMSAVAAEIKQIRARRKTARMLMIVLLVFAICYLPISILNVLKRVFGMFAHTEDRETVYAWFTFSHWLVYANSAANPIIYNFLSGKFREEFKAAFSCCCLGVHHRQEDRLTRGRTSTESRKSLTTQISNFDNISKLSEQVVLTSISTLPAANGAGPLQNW
# Test: Test Example 1: agonist activity for orexin receptor type 2 (aequorin luminescence, intracellular calcium mobilization)
# Conditions: compound 10 μm; CHO cells transiently expressing human orexin receptor type 2 and apoaequorin; relative percentage of luminescence for the luminescence (100%) of Orexin A (100 μM)
# Method: Human orexin receptor type 2 and apoaequorin were transiently expressed in CHO cells, and the agonist activity was evaluated based on intracellular calcium mobilization with ligand stimulation. The CHO cells transiently-expressed human orexin receptor type 2 and apoaequorin were seeded on a 384-well plate by 2,000 cells/well, and then incubated for 16-22 hours. After the plate was returned to room temperature, Coelenterazine hcp (final concentration: 1 μM) was added to the plate, and the plate was allowed to stand at room temperature for 2 hours. And then, Orexin A or each test compound was added to the plate, and the luminescence of the cells was measured with FDSS7000 (Hamamatsu Photonics K. K.), wherein Orexin A and each test compound were dissolved in DMSO (final concentration: 0.1%), and diluted with a buffer (Hanks, 20 mM HEPES, 0.1% BSA). The agonist activity of each test compound for orexin receptor type 2 was calculated as relative percentage of luminescence for the luminescence (100%) of Orexin A (100 μM).
row,Agonist Activity (%),Compound
1,176,"Cc1ccc(C2(C)CCN(C(=O)Nc3c(Cl)cccc3C3CCN(C(C)C)CC3)CC2)cc1 [Example 148, N-{2-chloro-6-[1-(propan-2-yl)piperidin-4-yl]phenyl}-4-methyl-4-(4-methylphenyl)piperidine-1-carboxamide]"
2,148,"CC(C)N1CCC(c2cccc(Cl)c2NC(=O)N2CCC(C)(c3noc(C4CC4)n3)CC2)CC1 [Example 145, N-{2-chloro-6-[1-(propan-2-yl)piperidin-4-yl]phenyl}-4-(5-cyclopropyl-1,2,4-oxadiazol-3-yl)-4-methylpiperidine-1-carboxamide]"
3,34,"Cc1ccc(C2CCN(C(=O)Nc3ccc(F)cc3N3CCN(C(C)C)CC3)CC2)cc1 [Example 10, N-{4-fluoro-2-[4-(propan-2-yl)piperazin-1-yl]phenyl}-4-(4-methylphenyl)piperidine-1-carboxamide]"
4,88,"CC1(c2cc(C3CC3)on2)CCN(C(=O)Nc2c(F)cccc2-c2ccc(C(F)(F)F)nc2)CC1.Cl [Example 71, 4-(5-cyclopropyl-1,2-oxazol-3-yl)-N-{2-fluoro-6-[6-(trifluoromethyl)pyridin-3-yl]phenyl}-4-mehylpiperidine-1-carboxamide hydrochloride]"
5,138,"CC(C)N1CCN(c2cccc(Cl)c2NC(=O)N2CCC(C)(c3noc(C(F)(F)F)n3)CC2)CC1 [Example 86, N-{2-chloro-6-[4-(propan-2-yl)piperazin-1-yl]phenyl}-4-methyl-4-[5-(trifluoromethyl)-1,2,4-oxadiazol-3-yl]piperidine-1-carboxamide]"
6,102,"CC(C)c1ccc(-c2cccc(F)c2NC(=O)N2CCC(C)(c3noc(C4CC4)n3)CC2)cn1 [Example 60, 4-(5-cyclopropyl-1,2,4-oxadiazol-3-yl)-N-{2-fluoro-6-[6-(propan-2-yl)pyridin-3-yl]phenyl}-4-methylpiperidine-1-carboxamide]"
7,163,"Cc1ccc(C2CCN(C(=O)Nc3c(Cl)cccc3N3CCN(C(C)C)CC3)CC2)cc1 [Example 35, N-{2-chloro-6-[4-(propan-2-yl)piperazin-1-yl]phenyl}-4-(4-methylphenyl)piperidine-1-carboxamide]"
8,161,"CC(C)N1CCN(c2cccc(Br)c2NC(=O)N2CCC(C)(c3noc(C4CC4)n3)CC2)CC1 [Example 88, N-{2-bromo-6-[4-(propan-2-yl)piperazin-1-yl]phenyl}-4-(5-cyclopropyl-1,2,4-oxadiazol-3-yl)-4-methylpiperidine-1-carboxamide]"
9,160,"CC(C)N1CCN(c2cccc(Cl)c2NC(=O)N2CCC(C)(c3nnc(C4CC4)s3)CC2)CC1 [Example 102, N-{2-chloro-6-[4-(propan-2-yl)piperazin-1-yl]phenyl}-4-(5-cyclopropyl-1,3,4-thiadiazol-2-yl)-4-methylpiperidine-1-carboxamide]"
10,122,"CCN1CCN(c2ccccc2NC(=O)N2CCC(c3ccc(C)cc3)CC2)CC1 [Example 122, N-[2-(4-ethylpiperazin-1-yl)phenyl]-4-(4-methylphenyl)piperidine-1-carboxamide]"
11,148,"CC(C)N1CCN(c2cccc(Cl)c2NC(=O)N2CCC(C)(c3noc(C4CC(F)(F)C4)n3)CC2)CC1 [Example 76, N-{2-chloro-6-[4-(propan-2-yl)piperazin-1-yl]phenyl}-4-[5-(3,3-difluorocyclobutyl)-1,2,4-oxadiazol-3-yl]-4-methylpiperidine-1-carboxamide]"
12,26,"COc1cccc(CN2CCN(C(C)C)CC2)c1NC(=O)N1CCC(c2ccc(C)cc2)CC1 [Example 63, N-(2-methoxy-6-{[4-(propan-2-yl)piperazin-1-yl]methyl}phenyl)-4-(4-methylphenyl)piperidine-1-carboxamide]"
13,155,"CC(C)N1CCN(c2cccc(F)c2NC(=O)N2CCC(c3cc(C4CC4)on3)CC2)CC1 [Example 52, 4-(5-cyclopropyl-1,2-oxazol-3-yl)-N-{2-fluoro-6-[4-(propan-2-yl)piperazin-1-yl]phenyl}piperidine-1-carboxamide]"
14,54,"CCN1CCCN(c2ccccc2NC(=O)N2CCC(c3ccc(C)cc3)CC2)CC1 [Example 153, N-[2-(4-ethyl-1,4-diazepan-1-yl)phenyl]-4-(4-methylphenyl)piperidine-1-carboxamide]"
15,157,"CC1(c2noc(C3CC3)n2)CCN(C(=O)Nc2c(Cl)cccc2N2CCN(C3CC3)CC2)CC1 [Example 113, N-[2-chloro-6-(4-cyclopropylpiperazin-1-yl)phenyl]-4-(5-cyclopropyl-1,2,4-oxadiazol-3-yl)-4-methylpiperidine-1-carboxamide]"
16,161,"Cc1ccc(C2CCN(C(=O)Nc3c(N4CCN(C(C)C)CC4)cccc3C(F)(F)F)CC2)cc1 [Example 34, 4-(4-methylphenyl)-N-{2-[4-(propan-2-yl)piperazin-1-yl]-6-(trifluoromethyl)phenyl}piperidine-1-carboxamide]"
17,156,"CC(C)N1CCN(c2cccc(Cl)c2NC(=O)N2CCC(C)(c3cc(C4CC4)on3)CC2)CC1 [Example 61, N-{2-chloro-6-[4-(propan-2-yl)piperazin-1-yl]phenyl}-4-(5-cyclopropyl-1,2-oxazol-3-yl)-4-methylpiperidine-1-carboxamide]"
18,132,"Cc1ccc(C2CCN(C(=O)Nc3c(F)cccc3N3CCN(C(C)C)CC3)CC2)cc1 [Example 9, N-{2-fluoro-6-[4-(propan-2-yl)piperazin-1-yl]phenyl}-4-(4-methylphenyl)piperidine-1-carboxamide]"
19,160,"CC1(c2noc(C3CC3)n2)CCN(C(=O)Nc2c(Cl)cccc2N2CCN(C(C)(C)C)CC2)CC1 [Example 100, N-[2-(4-tert-butylpiperazin-1-yl)-6-chlorophenyl]-4-(5-cyclopropyl-1,2,4-oxadiazol-3-yl)-4-methylpiperidine-1-carboxamide]"
20,170,"CC(C)N1CCN(c2cccc(Cl)c2NC(=O)N2CCC(C)(c3noc(C4CCC4)n3)CC2)CC1 [Example 78, N-{2-chloro-6-[4-(propan-2-yl)piperazin-1-yl]phenyl}-4-(5-cyclobutyl-1,2,4-oxadiazol-3-yl)-4-methylpiperidine-1-carboxamide]"
21,82,"COc1cccc(N2CCN(C(C)C)CC2)c1NC(=O)N1CCC(c2ccc(OC(F)(F)F)cc2)CC1 [Example 16, N-{2-methoxy-6-[4-(propan-2-yl)piperazin-1-yl]phenyl}-4-[4-(trifluoromethoxy)phenyl]piperidine-1-carboxamide]"
22,164,"Cc1ccc(C2CCN(C(=O)Nc3ccccc3C3CCN(C(C)C)CC3)CC2)cc1.Cl [Example 31, 4-(4-methylphenyl)-N-{2-[1-(propan-2-yl)piperidin-4-yl]phenyl}piperidine-1-carboxamide hydrochloride]"
23,125,"Cc1nc(C2(C)CCN(C(=O)Nc3ccccc3N3CCN(C(C)C)CC3)CC2)no1 [Example 120, 4-methyl-4-(5-methyl-1,2,4-oxadiazol-3-yl)-N-{2-[4-(propan-2-yl)piperazin-1-yl]phenyl}piperidine-1-carboxamide]"
24,156,"CC(C)N1CCN(c2cccc(F)c2NC(=O)N2CCC(C)(c3noc(C4(C)CC4)n3)CC2)CC1 [Example 79, N-{2-fluoro-6-[4-(propan-2-yl)piperazin-1-yl]phenyl}-4-methyl-4-[5-(1-methylcyclopropyl)-1,2,4-oxadiazol-3-yl]piperidine-1-carboxamide]"
25,133,"CC(C)c1nc(C2(C)CCN(C(=O)Nc3ccccc3N3CCN(C(C)C)CC3)CC2)no1 [Example 19, 4-methyl-4-[5-(propan-2-yl)-1,2,4-oxadiazol-3-yl]-N-{2-[4-(propan-2-yl)piperazin-1-yl]phenyl}piperidine-1-carboxamide]"
26,129,"CC(C)N1CCN(c2cccc(F)c2NC(=O)N2CCC(Oc3ccccc3)CC2)CC1 [Example 27, N-{2-fluoro-6-[4-(propan-2-yl)piperazin-1-yl]phenyl}-4-phenoxypiperidine-1-carboxamide]"
27,106,"Cc1ccc(C2CCN(C(=O)Nc3c(F)cccc3C3CCN(C(C)C)CC3)CC2)cc1 [Example 39, N-{2-fluoro-6-[1-(propan-2-yl)piperidin-4-yl]phenyl}-4-(4-methylphenyl)piperidine-1-carboxamide]"
28,183,"CC(C)[C@H]1CO[C@H](c2cccc(Cl)c2NC(=O)N2CCC(C)(c3noc(C4CC4)n3)CC2)CN1 (racemic) [Example 167, Rac-N-{2-chloro-6-[(2R,5S)-5-(propan-2-yl)morpholin-2-yl]phenyl}-4-(5-cyclopropyl-1,2,4-oxadiazol-13-yl)-4-methylpiperidine-1-carboxamide]"
29,100,"Cc1noc(C2(C)CCN(C(=O)Nc3ccccc3N3CCN(C(C)C)CC3)CC2)n1 [Example 162, 4-Methyl-4-(3-methyl-1,2,4-oxadiazol-5-yl)-N-{2-[4-(propan-2-yl)piperazin-1-yl]phenyl}piperidine-1-carboxamide]"
